Data from ChEMBL document CHEMBL3396984, “Structure-activity relationship study of diphenylamine-based estrogen receptor (ER) antagonists” (Bioorg Med Chem, 2015).
The source made the active and inactive calls. The rule behind the calls is not given here.

Tests used:
MCF7 [1] = test: Estrogenic activity in human MCF7 cells; assay type: functional, cell-based
MCF7 [2] = test: Antiproliferative activity against human MCF7 cells after 5 days by WST-8 assay; assay type: functional, cell-based
MCF7 [3] = test: Ratio of tamoxifen IC50 to compound IC50 for human MCF7 cells; assay type: functional
[4] = Homo sapiens, MCF7, 120 h, read-out: IC50

Structure (SMILES) | Activity (MCF7 [1]) | Activity (MCF7 [2]) | IC50 (MCF7 [2]; [4]) | Ratio IC50 (MCF7 [3]) | IC50 (MCF7 [2]; mcf7)
Oc1ccc(N(Cc2ccccc2)c2ccc(OCCN3CCCC3)cc2)cc1 | inactive | Dose-dependent effect | 1.3 µM |  | 
O=S(=O)(c1ccccc1)N(c1ccc(O)cc1)c1ccc(OCCN2CCCC2)cc1 | inactive | Dose-dependent effect | 0.5 µM |  | 
CCCCCCN(c1ccc(O)cc1)c1ccc(OCCN(C)C)cc1 | inactive | Dose-dependent effect | 2.4 µM |  | 
CCN(CC)CCOc1ccc(N(c2ccc(O)cc2)S(=O)(=O)c2ccccc2)cc1 | inactive | Dose-dependent effect | 1.3 µM |  | 
CCC(=C(c1ccc(O)cc1)c1ccc(OCCN(C)C)cc1)c1ccccc1 |  | Dose-dependent effect | 8.9 µM |  | 
CCCCCCN(c1ccc(O)cc1)c1ccc(OCCN2CCCCC2)cc1 | inactive | Dose-dependent effect | 0.13 µM | 10 | 
CCCCCCN(c1ccc(O)cc1)c1ccc(OCCCN(C)C)cc1 | inactive | Dose-dependent effect |  |  | Not Active
CCN(CC)CCOc1ccc(N(Cc2ccccc2)c2ccc(O)cc2)cc1 | inactive | Dose-dependent effect | 1.9 µM |  | 
Oc1ccc(N(Cc2ccccc2)c2ccc(OCCN3CCCCC3)cc2)cc1 | inactive | Dose-dependent effect | 0.8 µM |  | 
CN(C)CCCOc1ccc(N(c2ccc(O)cc2)S(=O)(=O)c2ccccc2)cc1 | inactive | Dose-dependent effect | 2.2 µM |  | 
CCCCCCN(c1ccc(O)cc1)c1ccc(OCCN(CC)CC)cc1 | inactive | Dose-dependent effect | 1.4 µM |  | 
CN(C)CCOc1ccc(N(c2ccc(O)cc2)S(=O)(=O)c2ccccc2)cc1 | inactive | Dose-dependent effect | 9.3 µM |  | 
CCCCCCN(c1ccc(O)cc1)c1ccc(OCCN2CCCC2)cc1 | inactive | Dose-dependent effect | 2.7 µM |  | 
O=S(=O)(c1ccccc1)N(c1ccc(O)cc1)c1ccc(OCCN2CCCCC2)cc1 | inactive | Dose-dependent effect | 0.32 µM |  | 
CC/C(=C(\c1ccccc1)c1ccc(OCCN(C)C)cc1)c1ccccc1 [TAMOXIFEN] |  | Dose-dependent effect | 2.1 µM |  | 
Oc1ccc(N(Cc2ccccc2)c2ccc(OCCN3CCCCCC3)cc2)cc1 | inactive | Dose-dependent effect | 0.66 µM |  | 
CCCCCCN(c1ccc(O)cc1)c1ccc(OCCN2CCCCCC2)cc1 | inactive | Dose-dependent effect | 1.4 µM |  | 
CN(C)CCCOc1ccc(N(Cc2ccccc2)c2ccc(O)cc2)cc1 | inactive | Dose-dependent effect | 2.8 µM |  | 
CN(C)CCOc1ccc(N(Cc2ccccc2)c2ccc(O)cc2)cc1 | inactive | Dose-dependent effect | 4.4 µM |  | 
